Converted amounts (≈) assume the structure as drawn. Read-outs that look alike come from different tables or passages of the source.
Columns and labels:
Gardnerella vaginalis = experiment: MIC in vitro, Gardnerella vaginalis (NCCLS M11-T2, agar Wilken-Chalgren); type: cell-based; conditions: for MIC: read-out: MIC Range of Concentration Value
From the text: (§1) Forty strains of Bacteroides bivius-disiens, 23 strains of Gardnerella vaginalis, 31 strains of the species Lactobacillus and 13 strains of Mobiluncus, 35 strains (from Iowa) and 25 strains (from Manitoba) of Neisseria gonorrhoeae, 25 strains of Haemophilus ducreyi and 6 strains of Chlamydia trachomatis have been analyzed.
(§2) Forty strains of Bacteroides bivius-disiens, 23 strains of Gardnerella vaginalis, 31 strains of Lactobacillus spp., 13 strains of Mobiluncus spp., 6 strains of Chlamydia trachomatis, 60 strains of Neisseria gonorrhoeae and 25 strains of Haemophilus ducreyi were obtained by culture collections supplied from: […]

Lactobacillus spp. = experiment: MIC in vitro, Lactobacillus spp. (NCCLS M11-T2, agar Wilken-Chalgren); type: cell-based; conditions: for MIC: read-out: MIC Range of Concentration Value
From the text: as §1, §2

Mobiluncus spp. = experiment: MIC in vitro, Mobiluncus spp. (NCCLS M11-T2, agar Wilken-Chalgren); type: cell-based; conditions: for MIC: read-out: MIC Range of Concentration Value
From the text: as §1, §2

[1] = tested on: Bacteroides bivius-disiens; experiment: MIC in vitro, Bacteroides bivius-disiens (NCCLS M11-T2, agar Wilken-Chalgren); type: cell-based; conditions: 40 strains; for MIC: read-out: MIC Range of Concentration Value
From the text: as §1, §2

[2] = cited from earlier work
Haemophilus ducreyi = experiment: MIC in vitro, Haemophilus ducreyi (Hoban et al. method); type: cell-based
From the text: (§3) Forty strains of Bacteroides bivius-disiens, 23 strains of Gardnerella vaginalis, 31 strains of the species Lactobacillus and 13 strains of Mobiluncus, 35 strains (from Iowa) and 25 strains (from Manitoba) of Neisseria gonorrhoeae, 25 strains of Haemophilus ducreyi and 6 strains of Chlamydia trachomatis have been analyzed. The determination of the minimum inhibitory concentration on the strains of the four types of anaerobic bacteria has been carried out according to NCCLS M11-T2 method (National Committee for Clinical Laboratory Standards. Methods for antimicrobial testing of anaerobic bacteria--second edition: Tentative Standard. NCCLS M11-T2, Villanova, Pa. NCCLS; 1989) on agar Wilken-Chalgren (Difco Laboratories, Detroit, Mich.) to which blood has been added.
The strains of Haemophilus ducreyi have been grown on chocolate agar for 24 hours at 35° C. in an atmosphere of carbon dioxide. After each material has been isolated, it is applied on chocolate agar containing appropriate dilution of antibiotic (Hoban D. et al. "In vitro activity of lomefloxacin against Chlamydia trachomatis, Neisseria gonorrhoeae, Haemophilus ducreyi, Mycoplasma hominis and Ureaplasma urealyticum". Diagn. Microbiol. Infect. Dis. 12, 83S-86S, 1989). The plates are incubated in an atmosphere containing carbon dioxide with increasing moisture at 35° C. for 48 hours.
as §2

Mycoplasma hominis = experiment: MIC in vitro, Mycoplasma hominis (Hoban et al. method); type: cell-based; conditions: Metamycoplasma hominis
From the text: (§4) The determination of the MIC with respect to Neisseria gonorrhoeae has been carried out according to the NCCLS M7-A2 method, while the determination of th MIC with respect to Chlamydia trachomatis, Mycoplasma hominis, Ureaplasma urealyticum and Haemophilus ducrey has been carried out according to Hoban D. et al. "In vitro activity of lomefloxacin against Chlamydia trachomatis, Neisseria gonorrhoeae, Haemophilus ducreyi, Mycoplasma hominis and Ureaplasma urealyticum." Diagn. Microbiol. Infect. Dis., 12, 83S-86S (1989).

Chlamydia trachomatis = experiment: MIC in vitro, Chlamydia trachomatis (Hoban et al. method); type: cell-based
From the text: as §3
(§5) Forty strains of Bacteroides bivius-disiens, 23 strains of Gardnerella vaginalis, 31 strains of Lactobacillus spp., 13 strains of Mobiluncus spp., 6 strains of Chlamydia trachomatis, 60 strains of Neisseria gonorrhoeae and 25 strains of Haemophilus ducreyi were obtained by culture collections supplied from:
as §4

Neisseria gonorrhoeae = experiment: MIC in vitro, Neisseria gonorrhoeae (NCCLS M7-A2); type: cell-based
From the text: as §1, §5, §4

Ureaplasma urealyticum = experiment: MIC in vitro, Ureaplasma urealyticum (Hoban et al. method); type: cell-based
From the text: as §4

| Compound | MIC90 (Gardnerella vaginalis) [µg/mL] | MIC50 (Gardnerella vaginalis; 23 strains) [µg/mL] | MIC (Gardnerella vaginalis; 23 strains) [µg/mL] | MIC50 (Lactobacillus spp.; 31 strains) [µg/mL] | MIC90 (Lactobacillus spp.; 31 strains, read-out: MIC 90%) [µg/mL] | MIC (Lactobacillus spp.; 31 strains) [µg/mL] | MIC50 (Mobiluncus spp.; 13 strains) [µg/mL] | MIC90 (Mobiluncus spp.; 13 strains, read-out: MIC 90%) [µg/mL] | MIC (Mobiluncus spp.; 13 strains) [µg/mL] | MIC50 [1] [µg/mL] | MIC90 [1] [µg/mL] | MIC90 (Gardnerella vaginalis; 23 strains, read-out: MIC 90%) [µg/mL] | MIC [1] [µg/mL] | MIC90 (Lactobacillus spp.) [µg/mL] | other results |
| --- | --- | --- | --- | --- | --- | --- | --- | --- | --- | --- | --- | --- | --- | --- | --- |
| CC1(C)S[C@@H]2[C@H](NC(=O)[C@H](N)c3ccccc3)C(=O)N2[C@H]1C(=O)O [Ampicillin] | < 0.5 | ≤ 0.5 | 0.5 to 2 (≈ 1.43 to 5.72 µM) | ≤ 0.5 | 1 (≈ 2.86 µM) | 0.5 to 2 (≈ 1.43 to 5.72 µM) | ≤ 0.5 | 4 (≈ 11.4 µM) | 0.5 to 4 (≈ 1.43 to 11.4 µM) | 4 (≈ 11.4 µM) | 64 (≈ 183 µM) |  |  |  |  |
| CCC[C@@H]1C[C@@H](C(=O)N[C@@H]([C@H]2O[C@H](SC)[C@H](O)[C@@H](O)[C@H]2O)[C@H](C)Cl)N(C)C1 [Clindamycin] |  | ≤ 0.06 | 0.06 to 0.25 (≈ 0.141 to 0.588 µM) | 0.25 (≈ 0.588 µM) | 4 (≈ 9.41 µM) | 0.06 to 4 (≈ 0.141 to 9.41 µM) | ≤ 0.06 | < 0.06 | ≤ 0.06 | ≤ 0.06 | < 0.06 | < 0.06 | ≤ 0.06 |  | side effects ([2]; compared with drugs currently used): serious side effects, particularly on the gastrointestinal tract with serious forms of diarrhea and pseudo-membranous colitis that can even lead to the death of the patient |
| Cc1ncc([N+](=O)[O-])n1CCO [Metronidazole] | > 16 | > 16 |  | > 16 |  | > 16 | > 16 |  |  | 2 (≈ 11.7 µM) | 4 (≈ 23.4 µM) |  | 0.5 to 8 (≈ 2.92 to 46.7 µM) | > 16 | MIC90 (Mobiluncus spp.): > 16 µg/mL; side effects ([2]; in vivo): serious side effects particularly on the blood and on the central nervous system |
| CO[C@H]1/C=C/O[C@@]2(C)Oc3c(C)c(O)c4c(O)c(c5c(nc6cc(C)ccn65)c4c3C2=O)NC(=O)/C(C)=C\C=C\[C@H](C)[C@H](O)[C@@H](C)[C@@H](O)[C@@H](C)[C@H](OC(C)=O)[C@@H]1C [Rifaximin, 4-desoxy-4'-methyl-pyrido [1'2':1.2] imidazo [5.4-c] rifamycin SV] |  | 0.5 (≈ 0.636 µM) | 0.25 to 1 (≈ 0.318 to 1.27 µM) | 0.12 (≈ 0.153 µM) |  | 0.3 to 1 (≈ 0.382 to 1.27 µM) | ≤ 0.03 | < 0.03 | ≤ 0.03 | 0.12 (≈ 0.153 µM) | 0.25 (≈ 0.318 µM) | 1 (≈ 1.27 µM) | 0.03 to 0.5 (≈ 0.0382 to 0.636 µM) | 0.5 (≈ 0.636 µM) | MIC90 (Haemophilus ducreyi): 0.5 µg/mL (≈ 0.636 µM); MIC50 (Haemophilus ducreyi; 25 strains): 0.25 µg/mL (≈ 0.318 µM); MIC (Haemophilus ducreyi; 25 strains, read-out: MIC Range of Concentration Value): 0.03 to 0.5 µg/mL (≈ 0.0382 to 0.636 µM); MIC50 (Mycoplasma hominis; 20 strains): 64 µg/mL (≈ 81.4 µM); MIC90 (Mycoplasma hominis; 20 strains): ≥ 64 µg/mL; MIC (Mycoplasma hominis; 20 strains, read-out: MIC Range of Concentration Value): ≥ 64 µg/mL; MIC (Mycoplasma hominis; read-out: M.I.C.): ≥ 64 µg/mL; susceptibility (Chlamydia trachomatis): has shown susceptibility to rifaximin; MIC90 (Chlamydia trachomatis; Chlamydia trachomatis, 6 strains): < 20 µg/mL; MIC (Chlamydia trachomatis; Chlamydia trachomatis, 6 strains, read-out: MIC Range of Concentration Value): 10 to 20 µg/mL (≈ 12.7 to 25.4 µM); MIC (Chlamydia trachomatis; Chlamydia trachomatis, read-out: M.I.C.): > 20 µg/mL; MIC90 (Neisseria gonorrhoeae): 16 µg/mL (≈ 20.4 µM); MIC50 (Neisseria gonorrhoeae; 60 strains): 0.25 µg/mL (≈ 0.318 µM); MIC (Ureaplasma urealyticum): ≥ 64 µg/mL; MIC50 (Ureaplasma urealyticum; 25 strains): 64 µg/mL (≈ 81.4 µM); MIC90 (Ureaplasma urealyticum; 25 strains): > 64 µg/mL |
